Source: patent publication US20260184766A1 (priority 2022, published 2026)

What was measured:
[1] = system: pseudotyped virus carrying SARS-CoV-2 (Wuhan-Hu-1) wild-type (WT) spike protein; type: cell-based; settings: for EC50: read-out: Virus Neutralization Pseudovirus (nM) Wild-type
[2] = system: pseudotyped virus carrying S protein of a SARS-CoV-2 delta lineage virus; type: cell-based; settings: read-out: Virus Neutralization Pseudovirus (nM) Delta
[3] = biological target: biotinylated RBD (Wuhan-Hu-1) (Severe acute respiratory syndrome coronavirus 2, UniProt P0DTC2)
[4] = biological target: biotinylated RBD (Severe acute respiratory syndrome coronavirus 2, UniProt P0DTC2)

Sequence | EC50 [1] [nM] | EC50 [2] [nM] | binding of coated CDR3-knob to biotinylated RBD, in words [3] | further results
ISTCPDGYEHTCGCIGGCGCKRSACIGALCCQASLGGWLSDTV [2G3 knob ISTV] | 0.12 ± 0.03 | 56 ± 7.02 | – | –
TCPDGYEHTCGCIGGCGCKRSACIGALCCQASLGGWLSD [2G3 Knob] | 1.3 ± 0.3 | 71.3 ± 37.2 | – | –
HWTCPDGYEHTCGCIGGCGCKRSACIGALCCQASLGGWLSDSF [2G3 knob HWSF] | 0.15 ± 0.03 | 21.2 ± 22.9 | – | –
GGSEGDKTCPDGYEHTCGCIGGCGCKRSACIGALCCQASLGGWL [G3 TRUNC3A] | – | – | reduced binding | –
EGDKTCPDGYEHTCGCIGGCGCKRSACIGALCCQASLGGWLSDGETYTYEF [G3 Knob] | – | – | showed binding | neutralization potency of CDR3-knob only antibody, in words [1]: subnanomolar potency; binding to RBD after heat and SDS treatment [4]: maintained binding; RBD binding relative to reference anti-spike protein antibody CR3022 [3]: increased
GGSCPDGYEHTCGCIGGCGCKRSACIGALCCQASLGGWLSD [G3 NTRUNC5] | – | – | did not correlate with any reduction in binding activity | –
GGSEGDKTCPDGYEHTCGCIGGCGCKRSACIGALCCQASLGGW [G3 TRUNC3B] | – | – | reduced binding | –
